The results in this text go back to patent US8865623B2, “Herbicidally active cyclic diones and derivatives thereof, processes for their preparation, compositions, and method of controlling weeds” (Syngenta Limited, priority 2009, dated 2014).

Common to all, as to assay type: in vivo
The test system of experiment [1] is Echinochloa crus-galli (ECHCG). In words: Pre-emergence herbicidal activity, glasshouse pot test. The settings on record: Echinochloa crus-galli, 312 h; Rate 250 g/ha; pre-emergence spray; evaluated after 13 days; read-out: Pre-emergence activity ECHCG (100=total damage to plant; 0=no damage to plant). The essentials:
(§1)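 Spray solution: technical a.i. formulated in acetone/water (50:50) with 0.5% Tween 20, diluted in water. Applied to pots 1 d (pre) or 8 d (post) after sowing; glasshouse 24/16° C day/night, 14 h light, 65% humidity. Rated at 13 d, 0–100 damage.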

The test system of experiment [2] is Avena fatua (AVEFA). Described as above. The settings on record: Avena fatua, 312 h; Rate 250 g/ha; pre-emergence spray; evaluated after 13 days; read-out: Pre-emergence activity AVEFA (100=total damage to plant; 0=no damage to plant). The essentials: as §1
The test system of experiment [3] is Lolium perenne (LOLPE). Described as above. The settings on record: Lolium perenne, 312 h; Rate 250 g/ha; pre-emergence spray; evaluated after 13 days; read-out: Pre-emergence activity LOLPE (100=total damage to plant; 0=no damage to plant). The essentials:
as §1

Experiment [4] relates to Alopecurus myosuroides (ALOMY). Described as above. The conditions noted are these: Alopecurus myosuroides, 312 h; Rate 250 g/ha; pre-emergence spray; evaluated after 13 days; read-out: Pre-emergence activity ALOMY (100=total damage to plant; 0=no damage to plant). In short, it runs like this:
as §1

Experiment [5] concerns Echinochloa crus-galli (ECHCG). In words: Post-emergence herbicidal activity, glasshouse pot test. The settings on record: Echinochloa crus-galli, 312 h, rate 250 g/ha, evaluated after 13 days, glasshouse, read-out: Post-emergence activity ECHCG (100=total damage to plant; 0=no damage to plant). In short, it runs like this:
as §1

In experiment [6] the test system is Avena fatua (AVEFA). The description is as above. The settings on record: Avena fatua, 312 h, rate 250 g/ha, evaluated after 13 days, glasshouse, read-out: Post-emergence activity AVEFA (100=total damage to plant; 0=no damage to plant). In short, it runs like this:
as §1

The test system of experiment [7] is Lolium perenne (LOLPE). The description is as above. The settings on record: Lolium perenne, 312 h, rate 250 g/ha, evaluated after 13 days, glasshouse, read-out: Post-emergence activity LOLPE (100=total damage to plant; 0=no damage to plant). In short, it runs like this: as §1
The subject of experiment [8] is Alopecurus myosuroides (ALOMY). The description is as above. The conditions noted are these: Alopecurus myosuroides, 312 h, rate 250 g/ha, evaluated after 13 days, glasshouse, read-out: Post-emergence activity ALOMY (100=total damage to plant; 0=no damage to plant). The essentials:
as §1

Regarding `CCc1ccc(Oc2nc(F)c(F)c(C)c2F)cc1C1=C(O)C(C)(C)OC(C)(C)C1=O` [Example A-59], the pest or weed control at 250 g/ha in experiment [1] amounted to 100%; in the experiment on Avena fatua (AVEFA) [2] it was 70%; in the experiment on Lolium perenne (LOLPE) [3] it was 100%; in experiment [4] it was 80%; in experiment [5] it was 100%; with Avena fatua (AVEFA) [6], 70%. The pest or weed control at 250 g/ha in the experiment on Lolium perenne (LOLPE) [7] came to 70%; in experiment [8] it was 80%.

Regarding `CCc1ccc(Oc2ccc(Cl)cc2Cl)cc1C1=C(O)CCC(C)(C)C1=O` [Example A-111], the pest or weed control at 250 g/ha in experiment [1] was 40%; with Avena fatua (AVEFA) [2] it was 30%; in the experiment on Lolium perenne (LOLPE) [3] it was 40%; in experiment [4], 10%; in experiment [5], 40%; in the experiment with Avena fatua (AVEFA) [6], 0%. In addition, the pest or weed control at 250 g/ha in the experiment on Lolium perenne (LOLPE) [7] turned out to be 50%; in experiment [8], 10%.

On to `CCc1ccc(Oc2ccc([N+](=O)[O-])cc2F)cc1C1=C(O)C(C)(C)OC(C)(C)C1=O` [Example A-20], for which the pest or weed control at 250 g/ha in experiment [1] came out at 100%; with Avena fatua (AVEFA) [2] it was 20%; with Lolium perenne (LOLPE) [3] it was 0%; in experiment [4] it was 40%; in experiment [5], 80%; in the experiment with Avena fatua (AVEFA) [6], 70%. Also, the pest or weed control at 250 g/ha in the experiment with Lolium perenne (LOLPE) [7] turned out to be 50%; in experiment [8], 0%.

As for `CCc1ccc(Oc2ccc(Br)c(C)c2)cc1C1=C(O)C(C)(C)OC(C)(C)C1=O` [Example A-11], the pest or weed control at 250 g/ha was 0% in experiment [1]; 0% in the experiment on Avena fatua (AVEFA) [2]; 0% in the experiment with Lolium perenne (LOLPE) [3]; 0% in experiment [4]; 60% in experiment [5]; 20% in the experiment on Avena fatua (AVEFA) [6]. The pest or weed control at 250 g/ha (in the experiment on Lolium perenne (LOLPE) [7]; in experiment [8]) was 50% throughout.

Take `CCc1ccc(Oc2ccc(Br)c(Cl)c2)cc1C1=C(O)[C@@H]2CC[C@](C)(C1=O)C2(C)C` [Example A-241]: the pest or weed control at 250 g/ha was 80% in experiment [1]; 0% in the experiment on Avena fatua (AVEFA) [2]; 70% in the experiment on Lolium perenne (LOLPE) [3]; 30% in experiment [4]; 90% in experiment [5]; 70% in the experiment with Avena fatua (AVEFA) [6]. The pest or weed control at 250 g/ha with Lolium perenne (LOLPE) [7] came out at 60%; in experiment [8], 40%.

For `CCc1ccc(Oc2ccc([N+](=O)[O-])cc2C#N)cc1C1=C(O)C(C)(C)OC(C)(C)C1=O` [Example A-202], the pest or weed control at 250 g/ha in experiment [1] stood at 60%; in the experiment with Avena fatua (AVEFA) [2], 0%; in the experiment on Lolium perenne (LOLPE) [3] it was 10%; in experiment [4], 0%; in experiment [5] it was 60%; in the experiment with Avena fatua (AVEFA) [6], 20%. Besides, the pest or weed control at 250 g/ha was 30% with Lolium perenne (LOLPE) [7] and 10% in experiment [8].

As for `CCc1ccc(Oc2ccc(C#N)c(C#N)c2)cc1C1=C(O)C(C)(C)OC(C)(C)C1=O` [Example A-77], the pest or weed control at 250 g/ha in experiment [1] was found to be 70%; in the experiment with Avena fatua (AVEFA) [2], 20%; in the experiment with Lolium perenne (LOLPE) [3], 30%; in experiment [4] it was 40%; in experiment [5], 70%; with Avena fatua (AVEFA) [6], 30%. Also, the figures for the pest or weed control at 250 g/ha (in the experiment with Lolium perenne (LOLPE) [7]; in experiment [8]) were 30% and 60%, respectively.

In the case of `CCc1ccc(Oc2nc3cc(Cl)ccc3s2)cc1C1=C(O)C(C)(C)OC(C)(C)C1=O` [Example A-229], the pest or weed control at 250 g/ha in experiment [1] is 70%; with Avena fatua (AVEFA) [2], 0%; with Lolium perenne (LOLPE) [3], 60%; in experiment [4], 30%; in experiment [5] it was 100%; in the experiment with Avena fatua (AVEFA) [6], 10%. Moreover, the values for the pest or weed control at 250 g/ha (with Lolium perenne (LOLPE) [7]; in experiment [8]) were 100% and 90%, respectively.

For the compound `CCc1ccc(Oc2ccc(F)c(Cl)c2)cc1C1=C(O)[C@H]2CC[C@H](C2)C1=O` [Example A-246], the pest or weed control at 250 g/ha in experiment [1] is 100%; with Avena fatua (AVEFA) [2], 50%; in the experiment with Lolium perenne (LOLPE) [3], 60%; in experiment [4], 70%; in experiment [5], 100%; in the experiment on Avena fatua (AVEFA) [6] it was 60%. For the same compound, the pest or weed control at 250 g/ha was found to be 20% in the experiment on Lolium perenne (LOLPE) [7] and 50% in experiment [8].

For the compound `CCc1ccc(Oc2ccc(C#N)c(Cl)c2)cc1C1=C(O)C(C)(C)OC(C)(C)C1=O` [Example A-75], the pest or weed control at 250 g/ha in experiment [1] came to 100%; with Avena fatua (AVEFA) [2] it was 80%; in the experiment with Lolium perenne (LOLPE) [3] it was 100%; in experiment [4] it was 100%; in experiment [5], 100%; with Avena fatua (AVEFA) [6], 90%. The pest or weed control at 250 g/ha (with Lolium perenne (LOLPE) [7]; in experiment [8]) was 100% in each case.

Take `CCc1ccc(Oc2ncc(C(F)(F)F)cc2Cl)cc1C1=C(O)CC(C)(C)CC1=O` [Example A-86]: the pest or weed control at 250 g/ha turned out to be 100% in experiment [1]; 100% in the experiment on Avena fatua (AVEFA) [2]; 100% in the experiment with Lolium perenne (LOLPE) [3]; 90% in experiment [4]; 100% in experiment [5]; 100% in the experiment with Avena fatua (AVEFA) [6]. For the same compound, the pest or weed control at 250 g/ha in the experiment with Lolium perenne (LOLPE) [7] turned out to be 70%; in experiment [8], 90%.

As for `CCc1ccc(Oc2ccc(Br)cc2)cc1C1=C(O)CCCC1=O` [Example A-41], the pest or weed control at 250 g/ha was 100% in experiment [1]; 20% with Avena fatua (AVEFA) [2]; 60% in the experiment on Lolium perenne (LOLPE) [3]; 40% in experiment [4]; 90% in experiment [5]; 10% in the experiment on Avena fatua (AVEFA) [6]. Further, the pest or weed control at 250 g/ha (in the experiment with Lolium perenne (LOLPE) [7]; in experiment [8]) was 30% throughout.

On to `CCc1ccc(Oc2nc3ccccc3s2)cc1C1=C(O)CC2(CCOCC2)CC1=O` [Example A-303], for which the pest or weed control at 250 g/ha in experiment [1] worked out at 100%; in the experiment with Avena fatua (AVEFA) [2], 80%; in the experiment on Lolium perenne (LOLPE) [3] it was 90%; in experiment [4], 80%; in experiment [5], 100%; in the experiment with Avena fatua (AVEFA) [6], 100%. Further, the pest or weed control at 250 g/ha (in the experiment with Lolium perenne (LOLPE) [7]; in experiment [8]) was 100% each time.

For the compound `CCc1ccc(Oc2ccc(C(F)(F)F)c(Cl)c2)cc1C1=C(O)[C@@H]2CC[C@](C)(C1=O)C2(C)C` [Example A-315], the pest or weed control at 250 g/ha in experiment [1] turned out to be 100%; in the experiment on Avena fatua (AVEFA) [2], 60%; in the experiment with Lolium perenne (LOLPE) [3] it was 100%; in experiment [4] it was 80%; in experiment [5] it was 90%; in the experiment with Avena fatua (AVEFA) [6] it was 80%. Moreover, the pest or weed control at 250 g/ha turned out to be 90% in the experiment with Lolium perenne (LOLPE) [7] and 40% in experiment [8].

With `CCc1ccc(Oc2nc3ccc(Cl)cc3[n+]([O-])n2)cc1C1=C(O)C(C)(C)OC(C)(C)C1=O` [Example A-236], the pest or weed control at 250 g/ha in experiment [1] was found to be 80%; with Avena fatua (AVEFA) [2], 20%; with Lolium perenne (LOLPE) [3], 20%; in experiment [4], 40%; in experiment [5] it was 100%; in the experiment on Avena fatua (AVEFA) [6], 100%. The pest or weed control at 250 g/ha in the experiment with Lolium perenne (LOLPE) [7] was 30%; in experiment [8] it was 100%.
